Results: US20250213561A1, “SELECTIVE HYPOTHALAMUS PERMEABLE HDAC6 INHIBITORS FOR TREATMENT OF LEPTIN-RESISTANT OBESITY” (The Children’s Medical Center Corporation, priority 2022, published 2025)
Entries after “also recorded” stand apart in the source; their conditions may differ.

Columns and labels:
[1] = test system: DIO mice; assay: Chronic treatment of DIO mice (body weight, food intake, DEXA, glucose homeostasis); assay type: in vivo; conditions: high fat diet induced mice
Experimental: DIO mice were treated with ACY775 (10 mg/kg/day, i.p.) for 3 weeks. Daily body weight (g) of DIO mice treated with vehicle (n=17) or ACY775 (n=17) during 3 weeks of treatment was determined. Daily food intake (g) during 3 weeks of vehicle or ACY775 treatment was assessed. 24 hours' food intake per mouse during the first week of vehicle or ACY775 treatment was determined. Serum leptin (ng/ml) levels after 3 weeks of vehicle (n=24) or ACY775 (n=24) treatment was assessed. Lean mass (g), fat mass (g) and fat percentage (%) after 3 weeks of vehicle (n=17) or ACY775 (n=17) treatment measured by Dual-energy X-ray absorptiometry (DEXA) scan. DEXA scans were performed in two different cohorts. Glucose tolerance test (GTT) after 1 week of vehicle (n=33) or ACY775 (n=26) treated DIO mice was assessed. Area of curve (AOC) analysis for GTT was performed. Blood glucose (mg/dl) levels after 1 week of vehicle (n=17) or ACY775 (n=16) were assessed in treated DIO mice. Insulin tolerance test (ITT) was performed after 2 weeks of vehicle (n=31) or ACY775 (n=21) treatment of DIO mice. Serum insulin (ng/ml) levels were measured after 3 weeks of vehicle (n=22) or ACY775 (n=21) in treated DIO mice. A homeostatic model assessment of insulin resistance (HOMA-IR) was analyzed after 3 weeks of vehicle (n=14) or ACY775 (n=13) treated DIO mice.
Food intake was analyzed hourly until 3:00 am. […] DEXA scans were performed in two different cohorts.
DIO mice then were treated with ricolinostat (50 mg/kg, i.p.) for 3 weeks. Daily body weight (g), daily food intake (g), serum leptin (ng/ml) levels after 3 weeks of vehicle (n-8) or ricolinostat (n=8) treatment, lean mass (g); fat mass and fat percentage (%) after 3 weeks of vehicle (n=16) or ricolinostat (n=17) treatment measured by DEXA scan were determined.
Blood glucose (mg/dl) levels were measured after 1 week of vehicle (n=16) or ricolinostat (n=16) treated DIO mice. GTT after 1 week of vehicle (n=17) or ricolinostat (n=16) treatment of DIO mice was assessed. AOC analysis for GTT was performed. ITT after 2 weeks of vehicle (n=17) or ricolinostat (n=16) treated DIO mice was measured. Serum insulin (ng/ml) levels after 3 weeks of vehicle (n=8) or ricolinostat (n=8) treatment were measured in DIO mice. Liver sections from 3 weeks of vehicle or ricolinostat treated DIO mice were stained by H&E.
DIO mice then were treated with bavarostat (10 mg/kg, i.p.) for 3 weeks and daily body weight (g) of DIO mice treated with Veh (n=9) or bavarostat (n=9) measured during the three weeks of treatment period. Daily food intake (g) during 3 weeks of Veh or bavarostat treatment was also measured.
ACY1083 was administered to DIO mice as described in Example 3.

[2] = biological target: HDAC6 (Homo sapiens (Human), UniProt Q9UBN7); conditions: unit printed as AM; unit of the source corrected; cited from earlier work
[3] = in vivo; cited from earlier work
[4] = test system: DIO mice; assay: Chronic treatment of DIO mice (body weight, food intake, DEXA, glucose homeostasis); assay type: in vivo; conditions: 14 days, oral administration
[5] = Brain/plasma ratio and brain or hypothalamus penetration; conditions: in vivo
[6] = test system: HDAC6-KO DIO mice; assay: Chronic treatment of DIO WT versus HDAC6 KO mice; assay type: in vivo; conditions: DIO mice
[7] = test system: HDAC6 in AgRP neurons; assay: DIO mice with HDAC6 depleted in AgRP neurons (HDAC6^Agrp-Δ); assay type: in vivo; conditions: HDAC6^Agrp-Δ versus HDAC6^WT DIO mice
Experimental: Design, validation, and stereotaxic injection of AAV viral vector carrying the guide RNAs targeting the mouse HDAC6 genomic locus. Three designed sgRNAs were concatenated and constructed into an AAV vector carrying a cre-enabled mCherry fluorescent marker.
Following the bilateral injection of AAV-sgHDAC6 into the arcuate nucleus of Agrp-ires-cre::LSL-Cas9-GFP (Agrp-Cre^+/−::Cas9^+/−) or control LSL-Cas9-GFP (Cas9^+/−) mice, immunostaining to detect the expression of mCherry and GFP was performed. AAV-sg-HDAC6 injected Agrp-Cre^+/−::Cas9^+/− (HDAC6^Agrp-Δ) and Cas9^+/−(HDAC6^WT) DIO mice (n=7 for each group) were fasted for 24 hours, and injected with ACY775 (10 mg/kg. i.p). Hourly total dark cycle food intake (g) (n=7 for each group) of these mice after ACY775 injection was measured. Body weight of AAV-sg-HDAC6 injected HDAC6^Agrp-Δ (n=11) and HDAC6^WT (n=6) mice were measured during 3 weeks of ACY775 (10 mg/kg/day, i.p.) treatment. Daily average food intake of HDAC6^Agrp-Δ (n=11) and HDAC6^WT (n=6) mice was measured during 3 weeks of ACY775 (10 mg/kg/day, i.p.) treatment. 24-hour food intake average of HDAC6^Agrp-Δ and HDAC6^WT mice during the 3 weeks of ACY775 treatment was assessed. Serum leptin level (ng/ml) of HDAC6^Agrp-Δ and HDAC6^WT mice after 2 weeks of ACY775 treatment (n=13 for HDAC6^WT and n=18 for HDAC6^Agrp-Δ) was measured. Lean mass (g); fat mass; and fat percentage (%) of HDAC6^Agrp-Δ and HDAC6^WT DIO mice after 3 weeks of ACY775 treatment was measured by DEXA scan. The HDAC6 inhibitor responsive neurons in the dorsomedial hypothalamus (DMH) were assessed. Immunostaining and quantification of c-Fos expression was performed in the DMH of DIO mice following one-time ACY775 treatment (10 mg/kg, i.p.).

[8] = test system: DIO mice; conditions: diet-induced obese mice; cited from earlier work

Sequence of HDAC6 (Q9UBN7 whole entry, species assumed): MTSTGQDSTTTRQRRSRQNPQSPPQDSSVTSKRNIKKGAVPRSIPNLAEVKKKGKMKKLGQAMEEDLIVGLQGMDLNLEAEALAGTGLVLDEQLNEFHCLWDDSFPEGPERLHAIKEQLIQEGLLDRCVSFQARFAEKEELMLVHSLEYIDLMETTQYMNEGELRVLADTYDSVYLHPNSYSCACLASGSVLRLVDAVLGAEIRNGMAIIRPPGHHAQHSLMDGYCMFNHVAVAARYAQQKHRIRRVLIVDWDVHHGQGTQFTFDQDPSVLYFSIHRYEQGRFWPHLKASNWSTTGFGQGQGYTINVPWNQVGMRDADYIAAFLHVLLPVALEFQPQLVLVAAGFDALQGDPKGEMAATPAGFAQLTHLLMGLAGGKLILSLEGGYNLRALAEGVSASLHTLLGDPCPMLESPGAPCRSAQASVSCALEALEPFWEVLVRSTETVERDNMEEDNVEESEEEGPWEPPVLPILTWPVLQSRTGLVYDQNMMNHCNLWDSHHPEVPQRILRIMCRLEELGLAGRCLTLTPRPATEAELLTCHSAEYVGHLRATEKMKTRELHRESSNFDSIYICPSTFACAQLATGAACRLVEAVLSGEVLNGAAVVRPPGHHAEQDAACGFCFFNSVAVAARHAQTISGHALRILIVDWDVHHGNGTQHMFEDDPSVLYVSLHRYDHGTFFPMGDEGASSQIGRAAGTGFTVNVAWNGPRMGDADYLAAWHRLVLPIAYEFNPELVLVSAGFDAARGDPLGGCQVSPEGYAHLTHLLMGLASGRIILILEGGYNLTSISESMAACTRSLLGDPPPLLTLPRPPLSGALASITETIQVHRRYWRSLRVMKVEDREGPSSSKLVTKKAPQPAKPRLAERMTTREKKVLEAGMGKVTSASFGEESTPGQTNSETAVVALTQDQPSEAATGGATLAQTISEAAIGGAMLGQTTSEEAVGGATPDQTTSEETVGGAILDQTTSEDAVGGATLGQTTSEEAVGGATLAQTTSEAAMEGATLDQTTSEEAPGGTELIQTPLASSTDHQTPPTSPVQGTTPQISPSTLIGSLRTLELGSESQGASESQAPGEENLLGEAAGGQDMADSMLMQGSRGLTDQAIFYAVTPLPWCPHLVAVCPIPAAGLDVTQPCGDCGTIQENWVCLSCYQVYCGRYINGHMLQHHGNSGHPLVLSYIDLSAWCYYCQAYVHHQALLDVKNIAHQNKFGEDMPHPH

SMILES | food intake and total body fat mass (summary) [1] | HDAC6 IC50 [2] | brain penetrance / BBB permeability [3] | body weight [4] | penetrance into the hypothalamus [5] | blood glucose, serum insulin and leptin levels, WT versus HDAC6 KO [6] | fat mass and fat %, WT versus HDAC6 KO [6] | food intake, WT versus HDAC6 KO [6] | glucose tolerance and insulin sensitivity (GTT, ITT), WT versus HDAC6 KO [6] | lean mass, WT versus HDAC6 KO [6] | body weight, WT versus HDAC6 KO ([6]; 3 weeks, ACY775 10, ACY738 50, Tubastatin A 25 mg/kg/day i.p.) | anti-obesity effects on chronic treatment [7] | anti-obesity effects reported by Cakir et al. [8]
O=C(NO)c1cnc(NC2(c3ccccc3)CCC(F)(F)CC2)nc1 [ACY1083] | significant reduction of food intake and total body fat mass | 3 nM | brain-penetrating | significant decrease in body weight; also recorded: reduced body weight | – | – | – | – | – | – | – | – | –
CN1CCc2c(c3ccccc3n2Cc2ccc(C(=O)NO)cc2)C1 [tubastatin A] | – | – | extremely low | – | neither of which have high penetrance into the hypothalamus | all reduced equally in the wt and HDAC6 KO group | significantly lower in both wt and HDAC6 KO groups | reduced similarly | improved glucose tolerance and increased insulin sensitivity in both wt and the HDAC6 KO mice | not different | reduced the body weight of the HDAC6 KO mice the same as the wt mice | did not change Tubastatin A's effects on suppressing feeding or body weight | reduce food intake, fat mass, hepatic steatosis and improve systemic glucose homeostasis
